1 substance from patent US20100136538A1, “MARKING REAGENTS BEARING DIAZO AND NITRO FUNCTIONS, METHODS FOR THE SYNTHESIS OF SUCH REAGENTS AND METHODS FOR DETECTING BIOLOGICAL MOLECULES” (Biomerieux, priority 2007, published 2010) can be followed below.

Bounds are passed on as bounds.

Data set [1] can be described thus: Accelerated stability in liquid medium (125 mM in 96/4 DMSO/methanol, ambient temperature), HPLC purity. In kind it is physicochemical. The following applies: 22° C., at 10 days. The method, then:
For this purpose, an accelerated stability study is carried out under extreme conditions, in which the compounds are stored at 125 mM in a 96/4 DMSO/methanol mixture at ambient temperature (22° C.+/−1° C.). Note that these are extreme storage conditions.
The three compounds meta nitro DKB, para nitro DKB, and BBP, which are clearly shown in FIG. 10, are dissolved at 125 mM in a 96/4 DMSO/methanol mixture and are stored at ambient temperature (22° C. plus or minus 1° C.). At regular intervals subsequently, 2 μl of these solutions are injected in HPLC (basic method, Waters HPLC system) in order to measure the degradation of the principal product by integrating all of the peaks in the chromatogram (PDA Max Plot in the Empower 2 software).

Data set [2] is classed as physicochemical. On the procedure:
The three compounds meta nitro DKB, para nitro DKB, and BBP are dissolved at 250 mM in a Tris HCl 10 mM, pH 7.5, and 10% Trehalose solution. The solutions are lyophilized overnight in aliquots of 50 nmol. The dry products are then stored at 4° C. At regular intervals these aliquots are dissolved in methanol and 15 μl of these solutions are injected in HPLC (Waters) in order to measure the degradation of the principal product by integration of all of the peaks in the chromatogram (PDA Max Plot in the Empower software).

On to [Bio-EG3]2-PDAM [BBP], for which the “purity of the initial compound (HPLC)” value in data set [1] is reported as below 10%. The “stability in dry form” value in data set [2] is recorded as “does not withstand lyophilization”. In data set [2] (Tris HCl 10 mM pH 7.5, 10% Trehalose, lyophilized overnight), this substance had a breakdown during lyophilization above 60%.
